This note sets out measurements from patent US7928143B2, “Method for preventing and/or treating neurodegenerative diseases” (Ono Pharmaceutical Co., Ltd., priority 2003, dated 2011).

Assay type in all cases: in vivo, human
The subject of data set [1] is patients with cerebral infarction at the acute phase (within 24 hours after onset of the disease). In words: Clinical test Example 2: safety evaluation (adverse matters and clinical test values). The note with it: administration group (2 to 12 mg/kg/h, i.v. 7 days). As for the experimental part:
(§1) As a clinical test, a double blind test was carried out using patients with cerebral infarction at the acute phase (within 24 hours after onset of the disease) under the following conditions by (2R)-2-propyloctanoic acid administration groups (6 varied doses) and a placebo administration group. • Object: 92 patients in the acute phase cerebral infarction. • Administration method and dosage: 1 hour of continuous intravenous administration once a day in each group; • (1) (2R)-2-propyloctanoic acid: 2 mg/kg/h; • (2) (2R)-2-propyloctanoic acid: 4 mg/kg/h; • (3) (2R)-2-propyloctanoic acid: 6 mg/kg/h; • (4) (2R)-2-propyloctanoic acid: 8 mg/kg/h; • (5) (2R)-2-propyloctanoic acid: 10 mg/kg/h; • (6) (2R)-2-propyloctanoic acid: 12 mg/kg/h; • (7) placebo. • Administration period: 7 days • The Number of Cases: • (1) (2R)-2-propyloctanoic acid 2 mg/kg/h administered group: 9 patients; • (2) (2R)-2-propyloctanoic acid 4 mg/kg/h administered group: 8 patients; • (3) (2R)-2-propyloctanoic acid 6 mg/kg/h administered group: 8 patients; • (4) (2R)-2-propyloctanoic acid 8 mg/kg/h administered group: 8 patients; • (5) (2R)-2-propyloctanoic acid 10 mg/kg/h administered group: 8 patients; • (6) (2R)-2-propyloctanoic acid 12 mg/kg/h administered group: 8 patients; • (7) placebo administered group: 43 patients. Evaluation Items: Main Evaluation Items <Efficacy Evaluation Items> (1) Modified Rankin Scale (mRS)
Adverse Matters and Clinical Test Values
• Analysis: Therapeutic effects by continuous intravenous administration of (2R)-2-propyloctanoic acid was evaluated based on the above main evaluation items. • Results: The results are shown below. <Efficacy Evaluation Item>

The test system of data set [2] is patients with cerebral infarction at the acute phase (within 72 hours after onset of the disease). In words: Clinical test Example 1: randomization test at two doses, efficacy by Rankin Scale and Glasgow Outcome Scale. The note with it: 4 mg/kg/h vs 0.4 mg/kg/h group, 1 h continuous i.v. once a day for 7 days, cases with JSS≦15 before administration, three months after commencement of administration. On the procedure:
(§2) As a clinical test, a randomization test was carried out on patients with cerebral infarction at the acute phase (within 72 hours after onset of the disease), at two doses under the following conditions. • Object: 97 patients in the acute phase cerebral infarction. • Administration method and dosage: 1 hour of continuous intravenous administration once a day in each group; • (1) (2R)-2-propyloctanoic acid: 0.4 mg/kg/h; • (2) (2R)-2-propyloctanoic acid: 4 mg/kg/h. • Administration period: 7 days • The Number of Cases: • (1) (2R)-2-propyloctanoic acid 0.4 mg/kg/h administered group: 51 patients; • (2) (2R)-2-propyloctanoic acid 4 mg/kg/h administered group: 46 patients. Evaluation Items: Main Evaluation Items <Efficacy Evaluation Items> (1) Rankin Scale (RS)
Evaluation method: Symptoms of patients were scored by classifying them into the following grades of Table 1.
(2) Glasgow Outcome Scale (GOS)
Evaluation method: Symptoms of patients were scored by classifying them into the following grades of Table 2.
(§3) <Safety Evaluation Item> • Frequency of adverse matters and the contents thereof (symptoms, causal relation and the like): • Analysis: Therapeutic effects by continuous intravenous administration of (2R)-2-propyloctanoic acid were evaluated based on the above main evaluation items. • Results: The results are shown below. <Efficacy Evaluation Item>

Data set [3] relates to patients with cerebral infarction at the acute phase (within 24 hours after onset of the disease). In words: Clinical test Example 2: double blind placebo-controlled test, efficacy by modified Rankin Scale. The note with it: 8 mg/kg/h administration group, 1 h continuous i.v. once a day for 7 days; 40 days after commencement of administration; statistically significant vs placebo (32.5%). As for the experimental part: as §1, with “Evaluation Items: Main Evaluation Items <Efficacy Evaluation Items> (1) Modified Rankin Scale (mRS)” left out

The subject of data set [4] is serum S-100β. As to the kind of experiment: Clinical test Example 2: serum S-100β content (SMART S100 ELISA Kit). The note with it: administered groups (2 to 12 mg/kg/h, i.v. 7 days) in comparison with placebo group; particularly remarkable on and after 3 days; FIG. 3. As for the experimental part:
as §1, with “Evaluation Items: Main Evaluation Items <Efficacy Evaluation Items> (1) Modified Rankin Scale (mRS)” left out
On the technique in general: In an ELISA, binding on a coated surface is turned into a signal by an enzyme label.

Data set [5] deals with patients with cerebral infarction at the acute phase (within 72 hours after onset of the disease). In words: Clinical test Example 1: safety evaluation (frequency of adverse matters and contents). The note with it: i.v. 7 days, causal relation to the test drug was denied. On the procedure:
as §2, §3

Take `CCCCCC[C@@H](CCC)C(=O)O` [(2R)-2-propyloctanoic acid]: in data set [1] (causal relation to the test drug was denied, placebo 12 cases), the Serious adverse matters was 10 cases. The “Frequency of the adverse matters (side effects) whose causal relation to the test drug was not denied” value in data set [1] (placebo 39.5%, no difference) came to 42.9%. The “Frequency of the adverse matters” value in data set [1] (placebo 100%, no difference) came to 98%. Also, in data set [2] (FIG. 1), the “ratio of occupying the category of improvement by RS (Rankin Scale)” value was “statistically significant differences were found”. Further, in data set [2] (FIG. 2), the “ratio of occupying the category of improvement by GOS (Glasgow Outcome Scale)” value was “statistically significant differences were found”. Further, the “ratio occupied by a score of 2 or less (category of good improvement) on modified Rankin Scale (mRS)” value in data set [3] is on record as 87.5%. In data set [4], the “serum S-100β content during the administration period” value was “tendency of inhibiting increase of the serum S-100β content”. The cases of death is reported as 3 cases in data set [5] (0.4 mg/kg/h administration group) and 4 cases in data set [5] (4 mg/kg/h administration group).
